Values of other authors as cited in US20100323044A1, “ABNORMAL PROTEIN REMOVING METHOD” (FANCL CORPORATION, priority 2004, published 2010).

Details: assumed, J Nutr 134 (2004); broken down by intestinal bacteria into soyasapogenol B, then absorbed

SMILES: C[C@@H]1O[C@@H](O[C@H]2[C@H](O[C@H]3[C@H](O[C@H]4CC[C@@]5(C)[C@@H](CC[C@]6(C)[C@@H]5CC=C5[C@@H]7CC(C)(C)C[C@@H](O)[C@]7(C)CC[C@]56C)[C@@]4(C)CO)O[C@H](C(=O)O)[C@@H](O)[C@@H]3O)O[C@H](CO)[C@H](O)[C@@H]2O)[C@H](O)[C@H](O)[C@H]1O [soyasaponin I]
- absorption in the human intestines: not absorbed directly
